Several values for one entry are separate records, joined by “and”; a condition that tells them apart may be missing. Equal entries are not always repeated. Where two headings read alike, the source gives them in different places.
Columns and labels:
human PDE11A1 [1] = molecular target: T1, human PDE11A1 (Homo sapiens, UniProt Q9HCR9, DUP921-921/R184Q); assay: Inhibition of human PDE11A1 activity by known PDE inhibitors (radio-labeled nucleotide method)
human PDE11A2 [2] = molecular target: T2, human PDE11A2 (Homo sapiens, UniProt Q9HCR9, DUP921-921); assay: Inhibition of human PDE11A2 activity by known PDE inhibitors (radio-labeled nucleotide method)
human PDE11A2 [3] = molecular target: T2, human PDE11A2; assay: Kinetic analysis of cAMP/cGMP hydrolysis by human PDE11A2 (Lineweaver-Burk plot); assay type: biochemical; design: inserted into a BamHI-XhoI site of an expression vector, pHis, to obtain a vector plasmid pHis-PDE11T for PDE11A2 expression; made in house; host or cells: COS-7 cells; details: labelled substance as substrate, 0.1 to 10 μM
human PDE11A1 [4] = molecular target: T1, human PDE11A1; assay: Kinetic analysis of cAMP/cGMP hydrolysis by human PDE11A1 (Lineweaver-Burk plot); assay type: biochemical; design: inserted into a BamHI-XhoI site of an expression vector, pcDNA4/HisMaxC; made in house; host or cells: COS-7 cells; details: labelled substance as substrate, 0.1 to 10 μM
human PDE11 = assay: Influence of cGMP on cAMP hydrolysis activity and of cAMP on cGMP hydrolysis activity; assay type: biochemical; details: 3.5 μM unlabeled cAMP; 0.01-100 μM cGMP added; PDE11A1 and PDE11A2, FIG. 3
[5] = read-out: IC50 value for human PDE11A1 activity, effect on cGMP hydrolysis activity, substrate 1.3 μM unlabeled cGMP, inhibitor 0-100 μM, recombinant enzyme from COS-7 cells
[6] = read-out: IC50 value for human PDE11A2 activity, effect on cGMP hydrolysis activity, substrate 1.3 μM unlabeled cGMP, inhibitor 0-100 μM, recombinant enzyme from COS-7 cells

T2 sequence (Q9HCR9 with tags, fused parts or gaps isoform Q9HCR9-2 DUP671-671): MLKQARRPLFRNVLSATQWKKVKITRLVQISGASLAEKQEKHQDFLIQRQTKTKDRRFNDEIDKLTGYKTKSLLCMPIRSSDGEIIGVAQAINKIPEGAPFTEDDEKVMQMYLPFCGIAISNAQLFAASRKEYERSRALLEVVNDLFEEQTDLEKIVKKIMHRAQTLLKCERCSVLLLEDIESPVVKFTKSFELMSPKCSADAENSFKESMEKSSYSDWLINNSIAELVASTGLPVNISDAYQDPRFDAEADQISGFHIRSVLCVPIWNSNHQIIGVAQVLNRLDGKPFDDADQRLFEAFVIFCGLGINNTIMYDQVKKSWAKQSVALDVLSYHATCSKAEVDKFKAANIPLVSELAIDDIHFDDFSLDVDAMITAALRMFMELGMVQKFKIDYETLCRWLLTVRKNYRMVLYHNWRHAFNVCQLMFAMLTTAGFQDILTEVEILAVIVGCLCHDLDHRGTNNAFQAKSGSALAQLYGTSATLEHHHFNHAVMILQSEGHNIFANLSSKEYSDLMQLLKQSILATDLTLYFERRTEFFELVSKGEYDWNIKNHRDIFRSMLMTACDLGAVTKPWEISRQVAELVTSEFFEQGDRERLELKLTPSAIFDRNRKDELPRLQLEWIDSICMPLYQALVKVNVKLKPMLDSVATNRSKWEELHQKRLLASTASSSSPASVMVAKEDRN
T1 sequence (Q9HCR9 with tags, fused parts or gaps R184Q/DUP921-921): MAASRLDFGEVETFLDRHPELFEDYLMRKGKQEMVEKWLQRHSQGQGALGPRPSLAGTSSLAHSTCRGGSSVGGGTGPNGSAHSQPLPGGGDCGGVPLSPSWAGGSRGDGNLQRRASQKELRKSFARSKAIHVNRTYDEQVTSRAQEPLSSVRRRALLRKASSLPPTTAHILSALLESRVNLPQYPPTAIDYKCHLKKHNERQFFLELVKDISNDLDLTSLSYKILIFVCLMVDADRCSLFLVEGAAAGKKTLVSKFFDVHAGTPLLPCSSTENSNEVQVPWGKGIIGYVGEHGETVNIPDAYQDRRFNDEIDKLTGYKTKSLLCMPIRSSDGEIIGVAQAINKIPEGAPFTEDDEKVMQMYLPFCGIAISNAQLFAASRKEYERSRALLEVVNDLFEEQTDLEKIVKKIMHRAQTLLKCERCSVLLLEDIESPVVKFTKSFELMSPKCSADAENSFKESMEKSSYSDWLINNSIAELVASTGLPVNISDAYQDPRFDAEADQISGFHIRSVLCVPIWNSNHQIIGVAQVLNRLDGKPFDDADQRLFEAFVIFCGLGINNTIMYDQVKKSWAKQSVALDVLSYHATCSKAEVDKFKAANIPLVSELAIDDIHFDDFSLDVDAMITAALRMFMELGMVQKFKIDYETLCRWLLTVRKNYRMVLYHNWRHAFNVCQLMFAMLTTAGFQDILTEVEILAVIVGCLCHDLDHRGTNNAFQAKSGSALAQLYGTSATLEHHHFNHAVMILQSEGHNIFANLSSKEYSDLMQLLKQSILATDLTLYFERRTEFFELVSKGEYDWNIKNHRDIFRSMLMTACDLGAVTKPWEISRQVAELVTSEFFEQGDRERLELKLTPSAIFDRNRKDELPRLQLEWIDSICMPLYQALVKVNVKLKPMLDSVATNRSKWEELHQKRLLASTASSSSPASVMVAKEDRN

SMILES | IC50 (human PDE11A1 [1]) | IC50 (human PDE11A2 [2]) | IC50 (human PDE11A1 [1]; [5]) [µM] | also measured
CC(C)Cn1c(=O)n(C)c(=O)c2[nH]cnc21 [IBMX, 3-isobutyl-1-methylxanthine] | 65 µM and 81 µM | 30 µM and 38 µM |  | 
Cc1[nH]c(=O)c(C#N)cc1-c1ccncc1 [Milrinone] | > 100 µM | > 100 µM | > 100 | IC50 (human PDE11A2 [2]; [6]): > 100 µM
COc1ccc(C2CNC(=O)C2)cc1OC1CCCC1 (centres unmarked) [Rolipram] | > 100 µM | > 100 µM | > 100 | IC50 (human PDE11A2 [2]; [6]): > 100 µM
CCOC(=O)C1=C[C@]2(CC)CCCN3CCc4c(n1c1ccccc41)[C@@H]32 [Vinpocetine] | > 100 µM | 49 µM and 68 µM | > 100 | 
Nc1ncnc2c1ncn2[C@@H]1O[C@@H]2COP(=O)(O)O[C@H]2[C@H]1O [cAMP] |  |  |  | Vmax of human PDE11A2 (human PDE11A2 [3]): 9.63±1.88 pmol/min/μg protein
Nc1nc2c(ncn2[C@@H]2O[C@@H]3COP(=O)(O)O[C@H]3[C@H]2O)c(=O)[nH]1 [cGMP] |  |  |  | Km (human PDE11A1 [4]): 1.43 ± 0.109 µM; Vmax of human PDE11A1 (human PDE11A1 [4]): 121±8.08 pmol/min/μg of protein; Km (human PDE11A2 [3]): 1.47 ± 0.115 µM; Vmax of human PDE11A2 (human PDE11A2 [3]): 4.02±0.214 pmol/min/μg protein; cAMP hydrolysis activity (relative value %) on addition of cGMP (human PDE11): lowered depending on a concentration of cGMP added

Now from value to compound, other results behind:

IC50 (human PDE11A1 [1]) | IC50 (human PDE11A2 [2]) | IC50 (human PDE11A1 [1]; [5]) [µM] | SMILES | also measured
22 µM and 25 µM | 11 µM and 8.6 µM |  | CN1C(=O)c2[nH]c(Cc3ccc(C(F)(F)F)cc3)nc2N2C1=N[C@@H]1CCC[C@@H]12 (single isomer, unassigned) [SCH51866, (+)-cis-5-methyl-2-[4-(trifluoromethyl)benzyl]-3,4,5,6a,7,8,9,9a-octahydrocyclopent[4,5]imidazo-[2,1-b]purin-4-one] | 
1.8 ± 0.33 µM | 0.88 µM and 0.66 µM |  | O=C(O)C1CCN(c2nc(NCc3ccc4c(c3)OCO4)c3cc(Cl)ccc3n2)CC1 [E4021, sodium 1-[6-chloro-4-(3,4-methylenedioxybenzyl)aminoquinazolin-2-yl]pyperidine-4-carboxylate] | 
